# Reference: PubChem BioAssay AID1963973 (Molecular Pharmacology Branch, DTP, NCI, 2024)
# pIC50: −log10 of the molar value.
# System: 883617-216-R-J1-PDC tumor spheroids, viability
# Assay: Anticancer human tumor 883617-216-R-J1-PDC patient-derived bladder carcinoma cell line growth inhibition [PI3K]
# Conditions: spheroids with HUVEC and MSC; for pIC50: curve of first compound; for viability, T/C: stronger effect = lower value
# How it was run: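 Tumor cells were combined with HUVEC and MSCs into spheroids, then dosed with PI3K-inhibitor combinations over half-log ranges capped near clinical Cmax or 10 microM.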
# 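Note: spheroids exposed to agents for 7 days before the viability read.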
smiles,measurement,setting,value
CC(=O)c1c(C)c2cnc(Nc3ccc(N4CCNCC4)cn3)nc2n(C2CCCC2)c1=O + CC(Nc1ncnc2nc[nH]c12)c1cc2cccc(Cl)c2c(=O)n1-c1ccccc1,pIC50,second compound 0.0316 µM,7.07
same,pIC50,second compound 0.1 µM,7.10
same,pIC50,second compound 0.316 µM,7.12
same,pIC50,second compound 1 µM,7.33
same,pIC50,second compound 3.16 µM,7.64
same,pIC50,second compound 10 µM,> 9.50
same,"viability, T/C","second compound 0.0316 µM, first compound 0.000316 µM",92.9%
same,"viability, T/C","second compound 0.0316 µM, first compound 0.001 µM",94.6%
same,"viability, T/C","second compound 0.0316 µM, first compound 0.00316 µM",87.7%
same,"viability, T/C","second compound 0.0316 µM, first compound 0.01 µM",86.6%
same,"viability, T/C","second compound 0.0316 µM, first compound 0.0316 µM",79.6%
same,"viability, T/C","second compound 0.0316 µM, first compound 0.1 µM",45.2%
same,"viability, T/C","second compound 0.1 µM, first compound 0.000316 µM",96%
same,"viability, T/C","second compound 0.1 µM, first compound 0.001 µM",107%
same,"viability, T/C","second compound 0.1 µM, first compound 0.00316 µM",76.3%
same,"viability, T/C","second compound 0.1 µM, first compound 0.01 µM",79.8%
same,"viability, T/C","second compound 0.1 µM, first compound 0.0316 µM",86.3%
same,"viability, T/C","second compound 0.1 µM, first compound 0.1 µM",40.8%
same,"viability, T/C","second compound 0.316 µM, first compound 0.000316 µM",100%
same,"viability, T/C","second compound 0.316 µM, first compound 0.001 µM",95.3%
same,"viability, T/C","second compound 0.316 µM, first compound 0.00316 µM",87.1%
same,"viability, T/C","second compound 0.316 µM, first compound 0.01 µM",84.3%
same,"viability, T/C","second compound 0.316 µM, first compound 0.0316 µM",58.8%
same,"viability, T/C","second compound 0.316 µM, first compound 0.1 µM",47.3%
same,"viability, T/C","second compound 1 µM, first compound 0.000316 µM",98%
same,"viability, T/C","second compound 1 µM, first compound 0.001 µM",78.3%
same,"viability, T/C","second compound 1 µM, first compound 0.00316 µM",80.3%
same,"viability, T/C","second compound 1 µM, first compound 0.01 µM",71.3%
same,"viability, T/C","second compound 1 µM, first compound 0.0316 µM",58.6%
same,"viability, T/C","second compound 1 µM, first compound 0.1 µM",36.4%
same,"viability, T/C","second compound 3.16 µM, first compound 0.000316 µM",76%
same,"viability, T/C","second compound 3.16 µM, first compound 0.001 µM",61.3%
same,"viability, T/C","second compound 3.16 µM, first compound 0.00316 µM",68.8%
same,"viability, T/C","second compound 3.16 µM, first compound 0.01 µM",58.6%
same,"viability, T/C","second compound 3.16 µM, first compound 0.0316 µM",44.1%
same,"viability, T/C","second compound 3.16 µM, first compound 0.1 µM",38.1%
same,"viability, T/C","second compound 10 µM, first compound 0.000316 µM",52.7%
same,"viability, T/C","second compound 10 µM, first compound 0.001 µM",39.4%
same,"viability, T/C","second compound 10 µM, first compound 0.00316 µM",41.4%
same,"viability, T/C","second compound 10 µM, first compound 0.01 µM",46.4%
same,"viability, T/C","second compound 10 µM, first compound 0.0316 µM",31.9%
same,"viability, T/C","second compound 10 µM, first compound 0.1 µM",23.9%
CC(Nc1ncnc2nc[nH]c12)c1cc2cccc(Cl)c2c(=O)n1-c1ccccc1 (stereo not drawn),"viability, T/C",compound 0.0316 µM,98.3% [middle of 8 runs]
same,"viability, T/C",compound 0.1 µM,95.9% [middle of 8 runs]
same,"viability, T/C",compound 0.316 µM,94.8% [middle of 8 runs]
same,"viability, T/C",compound 1 µM,85.6% [middle of 8 runs]
same,"viability, T/C",compound 3.16 µM,66.2% [middle of 8 runs]
same,"viability, T/C",compound 10 µM,50.7% [middle of 8 runs]
